Reference: patent publication US11951190B2, “Use of labeled inhibitors of prostate specific membrane antigen (PSMA), as agents for the treatment of prostate cancer” (DEUTSCHES KREBSFORSCHUNGSZENTRUM, priority 2013, dated 2024)

Columns and labels:
[1] = biological target: T1, PSMA expressing cell line LNCaP (Homo sapiens, UniProt Q04609); assay: Competitive cell binding assay (68Ga-labeled [Glu-urea-Lys(Ahx)]2-HBED-CC radioligand); details: LNCaP cells, competition with 68Ga-labeled [Glu-urea-Lys(Ahx)]2-HBED-CC
T1 construct: using the PSMA expressing cell line LNCaP; host or cells: LNCaP
T1 sequence (Q04609 whole entry): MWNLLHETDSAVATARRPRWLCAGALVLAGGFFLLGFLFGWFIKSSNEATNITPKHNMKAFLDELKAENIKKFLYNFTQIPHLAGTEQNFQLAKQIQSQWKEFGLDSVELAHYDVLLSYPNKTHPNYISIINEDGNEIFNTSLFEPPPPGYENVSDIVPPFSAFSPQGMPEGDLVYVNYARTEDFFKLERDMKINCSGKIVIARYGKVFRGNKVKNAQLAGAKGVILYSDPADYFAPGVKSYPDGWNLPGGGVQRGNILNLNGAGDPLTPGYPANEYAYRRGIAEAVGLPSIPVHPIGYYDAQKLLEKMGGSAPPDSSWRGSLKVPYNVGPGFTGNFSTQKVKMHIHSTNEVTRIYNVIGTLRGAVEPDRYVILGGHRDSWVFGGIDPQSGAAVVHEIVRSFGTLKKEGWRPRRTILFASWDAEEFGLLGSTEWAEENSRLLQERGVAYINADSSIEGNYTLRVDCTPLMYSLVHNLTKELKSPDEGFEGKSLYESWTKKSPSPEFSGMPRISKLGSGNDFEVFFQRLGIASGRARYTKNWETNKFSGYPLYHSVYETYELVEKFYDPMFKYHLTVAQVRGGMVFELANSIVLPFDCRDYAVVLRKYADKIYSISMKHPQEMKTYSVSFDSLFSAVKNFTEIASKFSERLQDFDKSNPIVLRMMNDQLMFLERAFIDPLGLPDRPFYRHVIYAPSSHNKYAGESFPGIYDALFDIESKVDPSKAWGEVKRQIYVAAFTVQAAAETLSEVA
Description: (§1) In order to compare the series of novel compounds the competitive binding affinity and the specific internalization was analyzed using the PSMA expressing cell line LNCaP. To determine specific cellular uptake, cells were blocked with 2-(phosphonomethyl)-pentanedioic acid (PMPA). The inhibition potency was also investigated by the enzyme-based NAALADase assay.
(§2) For binding studies and in vivo experiments LNCaP cells (metastatic lesion of human prostatic adenocarcinoma, ATCC CRL-1740) were cultured in RPMI medium supplemented with 10% fetal calf serum and Glutamax (PAA, Austria). During cell culture, cells were grown at 37° C. in an incubator with humidified air, equilibrated with 5% CO2. The cells were harvested using trypsin-ethylenediaminetetraacetic acid (trypsin-EDTA; 0.25% trypsin, 0.02% EDTA, all from PAA, Austria) and washed with PBS.
The competitive cell binding assay and internalization experiments were performed as described previously (Eder et al. 2012).

LNCaP cells = assay: Specific cell uptake and internalization; format: cell-based, human; details: 45 min
Description: as §1, §2
To determine the specific cell uptake and internalization, 10^5 cells were seeded in poly-L-lysine coated 24-well cell culture plates 24 h before incubation. After washing, the cells were incubated with 25 nM of the radiolabeled compounds for 45 min at 37° C. and at 4° C., respectively. Specific cellular uptake was determined by competitive blocking with 2-(phosphonomethyl)pentanedioic acid (500 μM final concentration, PMPA, Axxora, Loerrach, Germany). Cellular uptake was terminated by washing 4 times with 1 mL of ice-cold PBS. Cells were subsequently incubated twice with 0.5 mL glycine-HCl in PBS (50 mM, pH=2.8) for 5 min to remove the surface-bound fraction. The cells were washed with 1 mL of ice-cold PBS and lysed using 0.3 N NaOH (0.5 mL). The surface-bound and the internalized fractions were measured in a gamma counter. The cell uptake was calculated as percent of the initially added radioactivity bound to 10^6 cells [% ID/10^6 cells].

LNCaP tumor xenografts [2] = assay: Dynamic microPET imaging; format: in vivo, athymic male nude mice; details: 68Ga-labeled
Description: Whole-body coronal microPET images of an athymic male nude mice bearing LNCaP tumor xenografts. […] Approximately 15 MBq/mouse were injected. […] The values are expressed as mean SUV (standardized uptake values).
For the microPET studies, 10-25 MBq of the radiolabeled compounds in a volume of 0.15 ml (˜0.5 nmol) were injected via a lateral tail vein into mice bearing LNCaP tumor xenografts. The anesthetized animals (2% sevoflurane, Abbott, Wiesbaden, Germany) were placed in prone position into the Inveon small animal PET scanner (Siemens, Knoxville, Tn., USA) to perform dynamic microPET scans and 20 min-static scans; c.f. FIG. 1, 3, 5-14

LNCaP tumor xenografts [3] = assay: Biodistribution / organ distribution in LNCaP tumor-bearing mice; format: in vivo, BALB/c nu/nu mice; details: for PSMA-specific uptake (organ distribution): 68Ga labeled, 1 h post injection of 0.06 nmol, blocking with 2 mg/kg 2-PMPA
Description: FIG. 2: Organ Distribution at 1 h post injection. […] Data are expressed as mean % ID/g tissue±SD (n=3).
The favourable pharmacokinetics led to extremely high tumor-to-background ratios (Tumor/Blood: 1058; Tumor/Muscle: 529) after 24 hours
7- to 8-week-old male BALB/c nu/nu mice (Charles River Laboratories) were subcutaneously inoculated into the right trunk with 5×10^6 cells of LNCaP (in 50% Matrigel; Becton Dickinson, Heidelberg, Germany). The tumors were allowed to grow until approximately 1 cm3 in size. The radiolabeled compounds were injected into the tail vein (approx. 1 MBq per mouse; 0.06 nmol). […] Organs of interest were dissected, blotted dry, and weighed. The radioactivity was measured using a gamma counter and calculated as % ID/g.

[4] = for Ga-68, 25 nM radiolabeled compound
[5] = 177Lu-labeled, 24 h post injection of 0.06 nmol, n=5

For O=C(O)CCC(NC(=O)NC(CCCCNC(=O)c1ccc(CNC(=O)c2ccc(CNC(=O)c3ccc(CNC(=O)c4ccc(CNC(=O)CN5CCN(CC(=O)O)CCN(CC(=O)O)CCN(CC(=O)O)CC5)cc4)cc3)cc2)cc1)C(=O)O)C(=O)O (stereo not drawn) [MB10], the IC50 [1] was 8.67 ± 1.58 nM.

Compound O=C(O)CC[C@H](NC(=O)N[C@@H](CCCCNC(=O)C1CCC(CNC(=O)C(Cc2ccc3ccccc3c2)NC(=O)CN2CCN(CC(=O)O)CCN(CC(=O)O)CCN(CC(=O)O)CC2)CC1)C(=O)O)C(=O)O (stereo partly drawn) [MB35] has an IC50 [1] of 26.2 nM.

With O=C(O)CCC(NC(=O)NC(CCCCNC(=O)C1CCC(CNC(=O)CN2CCN(CC(=O)O)CCN(CC(=O)O)CCN(CC(=O)O)CC2)CC1)C(=O)O)C(=O)O (stereo not drawn) [MB22] the IC50 [1] was 52.8 nM.

Compound O=C(O)CC[C@H](NC(=O)N[C@@H](CCCCNC(=O)[C@@H](Cc1ccc2ccccc2c1)NC(=O)[C@H]1CC[C@H](CNC(=O)CN2CCN(CC(=O)O)CCN(CC(=O)O)CCN(CC(=O)O)CC2)CC1)C(=O)O)C(=O)O [MB17.D] has an IC50 [1] of 12.4 ± 5.1 nM.

In the case of O=C(O)CC[C@H](NC(=O)N[C@@H](CCCCNC(=O)c1ccc(CNC(=O)c2ccc(CNC(=O)c3ccc(CNC(=O)CN4CCN(CC(=O)O)CCN(CC(=O)O)CCN(CC(=O)O)CC4)cc3)cc2)cc1)C(=O)O)C(=O)O [MB4], the Internalization (LNCaP cells; [4]) is reported as 14.18 ± 0.98 for Ga-68 % IA/10^6 cells and the IC50 [1] is reported as 0.74 ± 0.5 nM.

Work on O=C(O)CCC(NC(=O)NC(CCCCNC(=O)c1ccc(CNC(=O)CN2CCN(CC(=O)O)CCN(CC(=O)O)CCN(CC(=O)O)CC2)cc1)C(=O)O)C(=O)O (stereo not drawn) [MB2] yielded an Internalization (LNCaP cells; [4]) of 8.78 ± 3.96 for Ga-68 % IA/10^6 cells and an IC50 [1] of 2.75 ± 0.82 nM.

In the case of O=C(O)CCC(NC(=O)NC(CCCCNC(=O)c1ccc(CNC(=O)c2ccc(CNC(=O)CN3CCN(CC(=O)O)CCN(CC(=O)O)CCN(CC(=O)O)CC3)cc2)cc1)C(=O)O)C(=O)O (stereo not drawn) [MB3], the IC50 [1] is reported as 10.5 ± 6.06 nM.

Compound O=C(O)CC[C@H](NC(=O)N[C@@H](CCCCNC(=O)C1CCC(CNC(=O)c2ccc(CNC(=O)CN3CCN(CC(=O)O)CCN(CC(=O)O)CCN(CC(=O)O)CC3)cc2)CC1)C(=O)O)C(=O)O (stereo partly drawn) [MB33] has an IC50 [1] of 59.3 nM.

O=C(O)CC[C@H](NC(=O)N[C@@H](CCCCNC(=O)[C@H](Cc1ccc2ccccc2c1)NC(=O)[C@H]1CC[C@H](CNC(=O)CN2CCN(CC(=O)O)CCN(CC(=O)O)CCN(CC(=O)O)CC2)CC1)C(=O)O)C(=O)O [MB17] was tested, and the “background clearance and kidney enrichment in PET diagrams” value (LNCaP tumor xenografts [2]; after 2 hours) was “rapid background clearance as well as a substantial reduction of the enrichment in the kidney”, the “time of maximum kidney uptake (highest point in the time-activity-curve)” value (LNCaP tumor xenografts [2]; dynamic PET, after injection of the radiotracer) was 15 min and the Internalization (LNCaP cells; [4]) was 17.02 ± 4.36 for Ga-68 % IA/10^6 cells. The Internalization (LNCaP cells; for Lu-177, 25 nM radiolabeled compound) was 17.51 ± 3.99 for Lu-177 % IA/10^6 cells, the “PSMA-specific uptake (organ distribution)” value (LNCaP tumor xenografts [3]; 2 mg/kg) was “PSMA-specific uptake in the tumor and the kidneys” and the “PSMA-specific uptake (organ distribution)” value (LNCaP tumor xenografts [3]; listed as MB 17, 2 mg/kg) was “high PSMA-specific tumor uptake”. It also gave a kidney uptake (LNCaP tumor xenografts [3]; [5]) of 2.13±1.36 % ID/g, a liver uptake (LNCaP tumor xenografts [3]; [5]) of 0.08±0.03 % ID/g and a lung uptake (LNCaP tumor xenografts [3]; [5]) of 0.11±0.13 % ID/g. It also gave a spleen uptake (LNCaP tumor xenografts [3]; [5]) of 0.13±0.05 % ID/g and a tumor uptake (LNCaP tumor xenografts [3]; [5]) of 10.58±4.50 % ID/g.

For O=C(O)CC[C@H](NC(=O)N[C@@H](CCCCNC(=O)C1CCC(CNC(=O)C2CCC(CNC(=O)CN3CCN(CC(=O)O)CCN(CC(=O)O)CCN(CC(=O)O)CC3)CC2)CC1)C(=O)O)C(=O)O (stereo partly drawn) [MB31], the IC50 [1] was 91.8 nM.

With O=C(O)CCC(NC(=O)NC(CCCCNC(=O)C(Cc1ccc2ccccc2c1)NC(=O)CCCCCNC(=O)CN1CCN(CC(=O)O)CCN(CC(=O)O)CCN(CC(=O)O)CC1)C(=O)O)C(=O)O (stereo not drawn) [MB25] the IC50 [1] was 6.64 nM.

O=C(O)CCC(NC(=O)NC(CCCCNC(=O)C(Cc1ccc2ccccc2c1)NC(=O)c1ccc(CNC(=O)CN2CCN(CC(=O)O)CCN(CC(=O)O)CCN(CC(=O)O)CC2)cc1)C(=O)O)C(=O)O (stereo not drawn) [MB24] gave an IC50 [1] of 3.33 nM.
